Tested on: Phospho-ser15-p53
Experiment: Western blot of tumours from treated mice: phospho-ser15-p53
Assay type: in vivo, C57BL6 mice
Conditions: tumours of Dox treated mice, seven days
Protocol: Following the weighing and grouping of mice, treatment with D. viscosa extract commenced. Tumour size was measured every two days by taking measurements in two perpendicular dimensions using digital calipers. The D. viscosa extract was administered through raspberry flavoured jelly blocks. Mice were conditioned to the taste of the jelly four days before treatment began. Human dosage (5.24 mg/kg/day) and the Km factor were used for dose translation based on body surface area to calculate animal dosage to be administered (Reagan-Shaw et al., 2007). On the day of treatment, mice were put in separate cages and given a 1 cm×1 cm block of jelly injected with 146 μL extract per jelly block (0.065 mg/g average bodyweight) at dusk every day, for a period of seven days. The day after the last treatment, mice were sacrificed by decapitation, where after tumours were harvested and frozen at −80° C. until needed.
Protein extraction from cells took place after the 24 hour treatment period. The medium was aspirated and the flasks were placed on ice. […] Cell lysates were then centrifuged at room temperature for 10 minutes at 8000 rpm, where after the protein content of each lysate was determined using the Bradford method (Bradford, 1976). […] After extraction protein content was determined with the Bradford method (Bradford, 1976) and stored at −80° C. until analysis, […]

COc1cccc2c1C(=O)c1c(O)c3c(c(O)c1C2=O)C[C@@](O)(C(=O)CO)C[C@@H]3O[C@H]1C[C@H](N)[C@H](O)[C@H](C)O1 [Dox, doxorubicin]
level of p53 in tumours (ratio of phospho-ser15-p53 to total p53): 5.3±1.016 fold increase relative to cont

Source: patent US10188689B2, “Method and composition for treating breast cancer” (STELLENBOSCH UNIVERSITY, priority 2014, dated 2019)
